# Assay results published in patent US11464793B2, “Nutritional formulations including human milk oligosaccharides and antioxidants and uses thereof” (priority 2010, dated 2022).
# Assays:
# [1] = test system: respiratory syncytial virus (RSV); assay: In vitro inhibition of viral infectivity by purified HMOs (Example 36), RSV; assay type: cell-based; settings: co-incubation of virus (about 500 to 1,000 units/mL) with HMO at 1 or 10 mg/mL
# Experimental: In this Example, the effect of purified human milk oligosaccharides (HMO) on in vitro inhibition of viral infectivity is analyzed.
# Samples are prepared by co-incubation of a uniform virus dose of from about 500 units/mL to about 1,000 units/mL of one of three respiratory viruses: (1) respiratory syncytial virus (RSV); (2) human parainfluenza virus (HPIV3); or (3) H1N1 influenza virus with one of the following HMOs: (1) 3′-sialyllactose (3′SL); (2) 6′-sialyllactose (6′SL); (3) 3′-fucosyllactose (3′FL); (4) 2′-fucosyllactose (2′FL); (5) lacto-N-neotetraose (LNnT); or (6) sialic acid (SA). The HMOs are added at concentrations of either 1 mg/mL or 10 mg/mL.
# [2] = test system: monocyte-derived cytokines; assay: Monocyte-derived cytokines in peripheral blood mononuclear cells with or without RSV (Example 39); assay type: cell-based, human; settings: PBMC
# Experimental: (§1) Specifically, either 3′SL or 6′SL is added, at concentrations of 0.1 mg/mL, 0.2 mg/mL, or 0.5 mg/mL to fresh peripheral blood mononuclear cells and incubated at 37° C. in 5% CO2 to pretreat the cells for approximately 24 hours. LNnT is added, at concentrations of 0.1 mg/mL, 0.2 mg/mL, or 1 mg/mL to fresh peripheral blood mononuclear cells and incubated at 37° C. in 5% CO2 to pretreat the cells for approximately 24 hours. Lactose is included as a carbohydrate control. Matched endotoxin unit concentration controls are included to allow differentiation of ingredient effects from inherent low levels of endotoxin. Some variables are then incubated with RSV at a multiplicity of infection (MOI) of 0.1 for approximately 1 hour at 37° C. in 5% in CO2. Uninfected control variables are incubated with medium for approximately 1 hour at 37° C. in 5% CO2. After approximately one hour, fresh medium alone, or fresh medium containing the appropriate concentration of 3′SL, 6′SL, LNnT, lactose, or endotoxin is added to the appropriate tubes and the cells are incubated for 48 hours at 37° C. in 5% CO2. Supernatants are collected at 24 and 48 hours post-infection.
# (§2) Cytokines are measured in supernatants for each variable at 24 and 48 hours to assess the effects of HMOs on the early immune response to RSV. Cytokines are measured using custom Bio-Plex Human cytokine kits from Bio-Rad. Results for interferon-inducible protein 10 (IP-10, also known as CXCL 10) are shown in FIGS. 3 and 4 for 3′SL and 6′SL, and in FIGS. 5 and 6 for LNnT. IP-10 is a CXC chemokine that attracts, binds to and activates the CXCR3 receptor on natural killer cells and memory T cells. IP-10 is expressed by monocytes and a number of other cells, and is induced by interferon. A positive con-elation exists between RSV clinical disease severity in children (as measured by: length of hospital stay, fever, and number of days supplemental O2 is required) and serum IP-10. Therefore, a decrease in IP-10 signals a decrease in severity of RSV disease experienced.
# [3] = test system: interferon-inducible protein 10 (IP-10); assay: IP-10 in supernatants of RSV-infected peripheral blood mononuclear cells pretreated with HMO (Example 39); assay type: cell-based, human; settings: for IP-10 in virus-infected variables: PBMC of two donors, 24 h pretreatment, RSV MOI 0.1, supernatants at 24 and 48 hours, FIGS. 3-6; for IP-10 level reached relative to uninfected controls: RSV-infected PBMC; for dampening of virus-induced inflammation as measured by a decrease in IP-10, comparison: compared with 3′SL; for reduction of inflammation caused by RSV: pretreatment for 24 hours
# Experimental: as §1, §2
# [4] = test system: interleukin 10 (IL-10); assay: IL-10 in supernatants of peripheral blood mononuclear cells with or without RSV (Example 39); assay type: cell-based, human; settings: in the presence or absence of RSV; FIGS. 7-10
# Experimental: as §1, with “After approximately one hour, fresh medium alone, or fresh medium containing the appropriate concentration of 3′SL, 6′SL, LNnT, lactose, or endotoxin is added to the appropriate tubes and the cells are incubated for 48 hours at 37° C. in 5% CO2. Supernatants are collected at 24 and 48 hours post-infection.” left out
# Cytokines are measured in supernatants for each variable at 24 and 48 hours to assess the effects of HMOs on the early immune response to RSV. Cytokines are measured using custom Bio-Plex Human cytokine kits from Bio-Rad. […] A positive con-elation exists between RSV clinical disease severity in children (as measured by: length of hospital stay, fever, and number of days supplemental O2 is required) and serum IP-10. […]
# [5] = test system: H1N1 influenza virus; assay type: cell-based; settings: for IC50 (mg HMO/mL) H1N1 Influenza: co-incubation of virus (about 500 to 1,000 units/mL) with HMO at 1 or 10 mg/mL
# [6] = test system: human parainfluenza virus (HPIV3); assay type: cell-based; settings: co-incubation of virus (about 500 to 1,000 units/mL) with HMO at 1 or 10 mg/mL
# [7] = test system: H1N1 influenza virus; assay: microbe, parasite or virus in culture; assay type: cell-based; settings: HMO at 10 mg/mL, MDCK cells, FIG. 1
SMILES,IC50 (mg HMO/mL) RSV [1],"production of monocyte-derived cytokines (IL-10, MIP-1β, Interferon-γ, IL-8, IL-1α, IL-1β, IL-1ra) [2]",IP-10 in virus-infected variables [3],IP-10 level reached relative to uninfected controls [3],"dampening of virus-induced inflammation as measured by a decrease in IP-10, comparison [3]",reduction of inflammation caused by RSV [3],IL-10 concentration [4],IC50 (mg HMO/mL) H1N1 Influenza [5],"RSV-induced IP-10, Donor B ([3]; Donor B, 0.1, 0.2 or 0.5 mg/mL)","RSV-induced IP-10, Donor E ([3]; Donor E, 0.1, 0.2 or 0.5 mg/mL)",IC50 (mg HMO/mL) HPIV3 [6],anti-viral activity against H1N1 influenza virus ([5]; HMO at 1 mg/mL),inhibition of H1N1 virus infectivity [7],"inhibition at 10000 µg/mL ([7]; Influenza A virus, H1N1, read-out: inhibition of H1N1 virus infectivity)"
"CC(=O)N[C@H]1[C@H](O[C@H]2[C@@H](O)[C@@H](CO)O[C@@H](O[C@H]3[C@H](O)[C@@H](O)C(O)O[C@@H]3CO)[C@@H]2O)O[C@H](CO)[C@@H](O[C@@H]2O[C@H](CO)[C@H](O)[C@H](O)[C@H]2O)[C@@H]1O (mixture of isomers) [LNnT, lacto-N-neotetraose]",>10 mg HMO/mL,immunomodulatory in the presence or absence of the virus,clearly downregulates IP-10,reduce IP-10 to levels found in uninfected controls,more effective than 3′SL,effective in reducing inflammation caused by RSV,increases IL-10 concentration in a dose-dependent manner,>10 mg HMO/mL,–,–,–,–,–,–
"CC(=O)N[C@H]1[C@H]([C@H](O)[C@H](O)CO)O[C@@](O[C@H]2[C@@H](O)[C@@H](CO)O[C@@H](O[C@H]3[C@H](O)[C@@H](O)C(O)O[C@@H]3CO)[C@@H]2O)(C(=O)O)C[C@@H]1O (stereo partly shown) [3′SL, 3′-sialyllactose]",>10 mg HMO/mL,immunomodulatory in the presence or absence of the virus,dampen RSV-induced IP-10,–,–,effective in reducing inflammation caused by RSV,–,~5 mg HMO/mL,not effective,downregulates RSV-induced IP-10,>10 mg HMO/mL,inhibited,–,–
"CC(=O)N[C@H]1[C@H]([C@H](O)[C@H](O)CO)O[C@@](OC[C@H]2O[C@@H](O[C@H]3[C@H](O)[C@@H](O)[C@H](O)O[C@@H]3CO)[C@H](O)[C@@H](O)[C@H]2O)(C(=O)O)C[C@@H]1O [6′SL, 6′-sialyllactose]",>10 mg HMO/mL,immunomodulatory in the absence of the virus,clearly downregulates IP-10,reduce IP-10 to levels found in uninfected controls,more effective than 3′SL,effective in reducing inflammation caused by RSV,increases interleukin 10 (IL-10) concentration in a dose-dependent manner,~10 mg HMO/mL,–,–,>10 mg HMO/mL,–,approximately 60%,–
"CC(=O)N[C@H]1[C@H]([C@H](O)[C@H](O)CO)OC(O)(C(=O)O)C[C@@H]1O (stereo partly shown) [SA, sialic acid]",–,–,–,–,–,–,–,–,–,–,–,–,–,> 90%
